Measured values taken from patent US20250057808A1, “COMPOSITION COMPRISING BETA LACTAM FOR TREATING ALCOHOL DEPENDENCE AND ALCOHOL ASSOCIATED DISEASES OR CONDITIONS” (Temple University of the Commonwealth System of Higher …, priority 2023, published 2025).
“Also recorded” adds a separate entry of the source.

Tests used:
[1] = cited from earlier work
RAGE = assay: Western blot RAGE in subregions of mPFC and NAc; type: in vivo, Male P rats
Description: All P rats were euthanized by CO2 inhalation and decapitated with a guillotine 24 hours after the final i.p. injection was administered on Day 6 of Week 6. Brains were removed and immediately frozen on dry ice and stored at −80° C. The mPFC subregions (infralimbic cortex and prelimbic cortex) and NAc subregions (core and shell) were dissected using a cryostat machine kept at −20° C. Surgical blades were used to dissect all brain regions following visualized landmarks using the stereotaxic coordinates provided by Paxinos and colleague's rat brain stereotactic atlas. All brain regions were stored in −80° C. Western Blot analyses.
Western blot was performed to determine the expression of BDNF, TNF-α, RAGE, HMGβ-1, and β-tubulin in the subregions of mPFC and NAc as preformed in previous studies.
Brain samples were lysed with a lysing buffer containing protease inhibitors. The amount of protein in each sample was quantified using a detergent compatible protein assay (Bio-Rad, Hercules, CA, USA). Polyacrylamide gels (10%) were loaded with the lysate mixture, and proteins were separated using gel electrophoresis for 1 hour. Proteins were then transferred from the gels onto Polyvinylidene difluoride (PVDF) membranes (BioRad). After transfer, membranes were incubated for 30 minutes in a mixture of nonfat milk in 1×Tris-buffered saline with Tween-20 (TBST) at room temperature. Membranes were then incubated at 4° C. for 24 hours with primary antibodies: anti-rabbit BDNF (1:1000, Abeam, #ab108319), anti-rabbit TNF-α (1:500, Abeam, #ab9739), anti-rabbit HMGβ-1 (1:500, Abeam, #ab18256), and anti-rabbit RAGE (1:1000, Abeam, #ab37407). Anti-mouse-β-tubulin (1:1000, Cell Signaling Technology, #D71G9) was used as a loading control antibody. After incubating for 24 hours, secondary antibody such as donkey anti-rabbit (1:4000, Invitrogen, #31458) or anti-mouse (1:4000, Cell Signaling, #7076S) was added to the membrane for 1 hour at room temperature. The membranes were then washed with 1×TBST three times for 5 minutes each and then dried. Membranes were then incubated in chemiluminescent reagents (Super Signal West Pico, Pierce Inc.) for 2 minutes. Blot images were developed using ChemiDoc. Imaging System and ImageJ software version 1.53a were used to quantify and analyze the expression of BDNF, TNF-α, RAGE, HMGβ-1, and β-tubulin.
The data for the water/saline control group were expressed as 100% based on the values corresponding to the ethanol/saline and ethanol/MC-100093 groups for each set of blotting. Thus, the expression of selected proteins for each group (ethanol/saline group or ethanol/MC-100093 group) was calculated relative to the water/saline control group being set to 100%.
Statistical analyses were performed using GraphPad Prism Version 10. Two-way repeated measures ANOVA followed by Bonferroni post-hoc tests were used to compare water and ethanol intake, and body weight, amongst water group, ethanol/saline group and ethanol/MC-100093 group. A one-way ANOVA test was performed to compare the expression of the studied proteins in selected brain regions in water/saline, ethanol/saline and ethanol/MC-100093 groups. Statistical significance was determined by a p-value of or less than 0.05.

[2] = Ethanol drinking, further studies with MC-100093 100 mg/kg; type: in vivo, Male P rats
Description: We used an ethanol drinking paradigm as described previously by Alhaddad, et al. (2014). Briefly, animals started the experimental drinking procedure at age of 90 days. The animals had five weeks of exposure to continuous three-bottle choice drinking, 0%, 15% and 30%, v/v ethanol in water, available concurrently. Daily measurement of ethanol intake was performed (g of ethanol intake/kg of body weight/day). We measured the baseline ethanol drinking by average the intake during the last three weeks. Three groups of P rats (n=8-9/group) exposed to the five weeks ethanol exposure. At week 6, rats in each group received daily intraperitoneal injection of either MC-100093 at dose of 50 mg/kg (Ethanol-MC group), Ceftriaxone at dose of 200 mg/kg (Ethanol-CEF group, which also serves as positive control), or equivolume of saline vehicle (Ethanol group) for five days. This paradigm results in pharmacologically relevant blood alcohol concentration (50-200 mg %). Following the criteria for the development of ethanol dependence, rats whose average ethanol intake <4 g/kg/day were excluded from the study. Beside the ethanol exposed groups, another group of P rats (n=8) exposed to only water and food throughout the exposure procedures (control group).
Further studies were conducted to investigate the impact of MC-100093 at higher dose (100 mg/kg, i.p.) on ethanol consumption and glutamate transporter 1 (GLT-1) expression in medial prefrontal cortex (mPFC) subregions such as prelimbic mPFC (PL) and infralimbic mPFC (IL). Male P rats (n=16) were divided in three groups: a) Control water group was exposed to water only for 5 weeks and received i.p. saline on Week 6 for 5 days; b) Saline group was exposed to free choice of ethanol (15% and 30% and water) for 5 weeks, and received saline (i.p.) on Week 6 for 5 days; and c) MC-100093 group was exposed to free choice of ethanol for 5 weeks and received MC-100093 (100 mg/kg/day, i.p.) for 5 days on Week 6.

[3] = 100 mg/kg i.p., compared to ethanol/saline group

SMILES: C[C@@H](O)[C@H]1C(=O)N[C@@H]1[C@@H](C)C(=O)N1CCN(C)CC1 [MC-100093]
- Aqueous solubility [1]: high aqueous solubility
- Decrease in RAGE expression in the IL (RAGE; [3]): 14%
- Decrease in RAGE expression in the NAc core (RAGE; [3]): 12%
- RAGE expression in the NAc shell (RAGE; [3]): decreased RAGE expression
- RAGE expression in the PL (RAGE; [3]): decreased RAGE expression
- RAGE expression in subregions of mPFC and NAc (summary) (RAGE; post-treatment with MC-100093 100 mg/kg i.p., 100 mg/kg): normalized RAGE expression; also recorded: attenuated ethanol-induced increase in receptor for advanced glycation end products (RAGE)
- Reduction in ethanol consumption as compared to control vehicle group ([2]; MC-100093 100 mg/kg i.p.): about 50%
- Body weight (grams) ([2]; MC-100093 100 mg/kg i.p. 5 days): no significant effects
- Water intake (mL/day) ([2]; MC-100093 100 mg/kg i.p. 5 days, vs ethanol/saline, 100 mg/kg): significant increase in water intake; also recorded: increase in water consumption was observed on Days 1-5
- Ethanol consumption (g/kg/24 hr) ([2]; male P rats, MC-100093 100 mg/kg i.p. 5 days on Week 6, vs ethanol/saline, 100 mg/kg): attenuated ethanol intake; also recorded: significantly reduced ethanol consumption on Day 1, 3, 4, and 5; also recorded: reduced ethanol intake on Days 2, 4, 5, 6; also recorded: effect similar to that of ceftriaxone
- Ethanol preference ([2]; male P rats, MC-100093 100 mg/kg/day i.p. 5 days): decreased ethanol preference
